{
  "source": "patent US20070082953A1",
  "about": "“Use of l-dopa, derivatives thereof and medicaments comprising said compounds for the prophylaxis of psychotic diseases” (priority 2003, published 2007)",
  "tested_on": "patients with acute schizophrenia",
  "test": "Relapse prophylaxis in schizophrenia patients withdrawn from fluphenazine maintenance therapy",
  "format": "in vivo",
  "settings": "ten clinically stable patients taken off fluphenazine; L-dopa or L-dopa combination preparation given 2 months prior to withdrawal and during the entire withdrawal phase; about 8 of 10 relapses expected within 12 months per literature",
  "method": "Ten patients with acute schizophrenia, who had accordingly received maintenance therapy with fluphenazine for more than one year and were clinically stable, were successively taken off this drug. According to clinical experience (see Gitlin M., Nuechterlein K., Subotnik K. L. et al., Am. J. Psychiatry (2001) 158(11), pp. 1835-42), about 8 of the 10 patients would be expected to suffer a relapse within the following 12 months. Our patients were treated with L-dopa or a combination preparation containing L-dopa for 2 months prior to withdrawal and during the entire withdrawal phase. In these patients, a relapse occurred in only 2 of 10 cases.",
  "data": [
    {"smiles": "N[C@@H](Cc1ccc(O)c(O)c1)C(=O)O", "note": "[L-dopa, 3,4-dihydroxy-L-phenylalanine]", "values": [
      {"measurement": "relapse occurred (cases with relapse out of patients treated)", "result": "2 of 10"}
    ]}
  ]
}
